# Data taken from US20150025085A1, “Iron Chelators And Uses Thereof” (Varinel Inc., priority 2012, published 2015).
# Like-named read-outs stand apart in the source and are kept apart here.
# Key:
# bacterial infections = conditions: described in PCT/US2012/023377 (WO 2012/106364); cited from earlier work
# [1] = prior publications (WO 00/74664; WO 2004/041151); cited from earlier work
# 6-OHDA lesioned rats = conditions: cited from earlier work; for activity (neuroprotection) against 6-OHDA in an animal model of Parkinson's disease: prior publications, Ben Shachar et al. 2004
# [2] = system: lactacystin-lesioned mice; conditions: 5 mg/kg once a day i.p., 7 days before or after lactacystin microinjection; Zhu et al. 2007; cited from earlier work
# [3] = system: clinical isolates of bacterial strains of A. baumannii; test: MIC by CLSI microdilution in CAMHB media; assay type: cell-based; conditions: Acinetobacter baumannii, 24 h
# Description: (§1) The minimal inhibitory concentration (MIC) of compound 4 was determined against standard strains of MDR bacteria and clinical isolates according to the guidelines of the Clinical and Laboratory Standards Institute (CLSI).
# (§2) Individual MICs were determined following the microdilution method recommended by CLSI in cationic-adjusted Mueller-Hinton Broth (CAMHB), or M9 media. The MIC was defined as the lowest drug concentration that caused 100% inhibition of visible bacterial growth after 24 hours incubation. Tests were performed in triplicate. MIC of Compound 4 were determined for nosocomial ESKAPE pathogens (Enterococcus faecium, Staphylococcus aureus, Klebsiella pneumoniae, Acinetobacter baumannii, Pseudomonas aeruginosa, and Enterobacter species).
# (§3) Tables l and 2 show the MIC of compound 4 determined in two different media for clinical isolates of bacterial strains of A. baumannii (AB) obtained from the Multidrug-resistant Organism Repository & Surveillance Network, USA.
# [4] = system: clinical isolates of bacterial strains of A. baumannii; test: MIC by CLSI microdilution in RPMI 1640 (low iron) media; assay type: cell-based, Acinetobacter baumannii; design: key to MIC of compound 4: NG = no growth; conditions: for MIC: Acinetobacter baumannii
# Description: as §1
# as §2, with “Individual MICs were determined following the microdilution method recommended by CLSI in cationic-adjusted Mueller-Hinton Broth (CAMHB), or M9 media.” left out
# as §3
# A. baumannii strain 5711 = test: Growth curves (OD600) in CAMHB medium; assay type: cell-based, Acinetobacter baumannii; conditions: various concentrations, dose-responsive
# Description: (§4) It should be noted that the inhibition occurred in a dose-responsive manner.
# [5] = Stability in aqueous solution; assay type: physicochemical
# Description: as §4
# [6] = rats, Ben Shachar et al., Neuropharmacology 46 (2004) 254-263
# [7] = strain AB3638, read-out: MIC of compound 4
# [8] = strain AB3785, read-out: MIC of compound 4
# [9] = strain AB3806, read-out: MIC of compound 4
# [10] = strain AB3917, read-out: MIC of compound 4
# [11] = strain AB4025, read-out: MIC of compound 4
# [12] = strain AB4026, read-out: MIC of compound 4
# [13] = strain AB4027, read-out: MIC of compound 4
# [14] = strain AB4052, read-out: MIC of compound 4
# [15] = strain AB4269, read-out: MIC of compound 4
# [16] = strain AB4448, read-out: MIC of compound 4
# [17] = strain AB4456, read-out: MIC of compound 4
# [18] = strain AB4490, read-out: MIC of compound 4
# [19] = strain AB4498, read-out: MIC of compound 4
# [20] = strain AB4795, read-out: MIC of compound 4
# [21] = strain AB4857, read-out: MIC of compound 4
# [22] = strain AB4878, read-out: MIC of compound 4
# [23] = strain AB4932, read-out: MIC of compound 4
# [24] = strain AB4957, read-out: MIC of compound 4
# [25] = strain AB4991, read-out: MIC of compound 4
# [26] = strain AB5001, read-out: MIC of compound 4
# [27] = strain AB5075, read-out: MIC of compound 4
# [28] = strain AB5197, read-out: MIC of compound 4
# [29] = strain AB5256, read-out: MIC of compound 4
# [30] = strain AB5674, read-out: MIC of compound 4
# [31] = strain AB5711, read-out: MIC of compound 4
structure (smiles),measurement,setting,value
"OCCN1CCN(Cc2ccc(O)c3ncccc23)CC1 [VK28, 5-[4-(2-hydroxyethyl)piperazin-1-ylmethyl]-8-hydroxyquinoline]",antibacterial activity,bacterial infections,antibacterial activity
same,ability to cross the BBB,[1],able to cross the BBB
same,activity (neuroprotection) against 6-OHDA in an animal model of Parkinson's disease,6-OHDA lesioned rats,active
same,activity (neuroprotection) against 6-OHDA in an animal model of Parkinson's disease,6-OHDA lesioned rats; listed as Vk-28,neuroprotection
same,basal striatal tissue monoamine concentrations,6-OHDA lesioned rats; [6],no effect
same,"striatal 5-HT, 5-HIAA and NE concentrations",6-OHDA lesioned rats; [6],not be affected
same,behavioral performances,[2],significantly improved
same,lactacystin-induced DA neuron loss in SN,[2],attenuated
same,lactacystin-induced iron accumulation in SN,[2],attenuated
same,lactacystin-induced microglial activation in SN,[2],attenuated
same,lactacystin-induced proteasomal inhibition in SN,[2],attenuated
C#CCN(C)Cc1ccc(O)c2ncccc12 [M30],ability to cross the BBB,[1],able to cross the BBB
same,activity (neuroprotection) against 6-OHDA in an animal model of Parkinson's disease,6-OHDA lesioned rats,active
"OCCN1CCN(CCc2ccc(O)c3ncccc23)CC1 [Compound 4, 5-(2-(4-(2-hydroxyethyl)piperazin-1-yl)ethyl)-8-quinolinol]",MIC,"[3]; strain AB967, read-out: MIC of compound 4",500 µg/mL
same,MIC,"[3]; strain AB2828, read-out: MIC of compound 4",500 µg/mL
same,MIC,"[3]; strain AB3340, read-out: MIC of compound 4",500 µg/mL
same,MIC,"[3]; strain AB3560, read-out: MIC of compound 4",500 µg/mL
same,MIC,[3]; [7],500 µg/mL
same,MIC,[3]; [8],500 µg/mL
same,MIC,[3]; [9],1000 µg/mL
same,MIC,[3]; [10],500 µg/mL
same,MIC,"[3]; strain AB3927, read-out: MIC of compound 4",500 µg/mL
same,MIC,[3]; [11],500 µg/mL
same,MIC,[3]; [12],500 µg/mL
same,MIC,[3]; [13],500 µg/mL
same,MIC,[3]; [14],1000 µg/mL
same,MIC,[3]; [15],500 µg/mL
same,MIC,[3]; [16],500 µg/mL
same,MIC,[3]; [17],500 µg/mL
same,MIC,[3]; [18],500 µg/mL
same,MIC,[3]; [19],500 µg/mL
same,MIC,[3]; [20],500 µg/mL
same,MIC,[3]; [21],500 µg/mL
same,MIC,[3]; [22],500 µg/mL
same,MIC,[3]; [23],500 µg/mL
same,MIC,[3]; [24],500 µg/mL
same,MIC,[3]; [25],500 µg/mL
same,MIC,[3]; [26],500 µg/mL
same,MIC,[3]; [27],500 µg/mL
same,MIC,[3]; [28],500 µg/mL
same,MIC,[3]; [29],500 µg/mL
same,MIC,[3]; [30],500 µg/mL
same,MIC,[3]; [31],500 µg/mL
same,MIC,[4]; [7],64 µg/mL
same,MIC,[4]; [8],32 µg/mL
same,MIC,[4]; [9],32 µg/mL
same,MIC,[4]; [10],32 µg/mL
same,MIC,[4]; [11],32 µg/mL
same,MIC,[4]; [12],32 µg/mL
same,MIC,[4]; [13],32 µg/mL
same,MIC,[4]; [14],64 µg/mL
same,MIC,[4]; [15],32 µg/mL
same,MIC,[4]; [16],64 µg/mL
same,MIC,[4]; [17],32 µg/mL
same,MIC,[4]; [18],32 µg/mL
same,MIC,[4]; [19],64 µg/mL
same,MIC,[4]; [20],32 µg/mL
same,MIC,[4]; [21],64 µg/mL
same,MIC,[4]; [22],64 µg/mL
same,MIC,[4]; [23],125 µg/mL
same,MIC,[4]; [24],125 µg/mL
same,MIC,[4]; [25],8 µg/mL
same,MIC,[4]; [26],32 µg/mL
same,MIC,[4]; [27],64 µg/mL
same,MIC,[4]; [28],32 µg/mL
same,MIC,[4]; [29],125 µg/mL
same,MIC,[4]; [30],32 µg/mL
same,MIC,[4]; [31],64 µg/mL
same,MIC of compound 4,[4]; strain AB967,NG
same,MIC of compound 4,[4]; strain AB2828,NG
same,MIC of compound 4,[4]; strain AB3340,NG
same,MIC of compound 4,[4]; strain AB3560,NG
same,MIC of compound 4,[4]; strain AB3927,NG
same,OD600 in growth curves (inhibition of growth),A. baumannii strain 5711,dramatically reduced
same,stability in aqueous solution,[5],highly stable
same,antibacterial activity,bacterial infections,antibacterial activity
